Earlier results as cited in patent publication US20210187081A1, “FORMULATIONS AND DOSES OF PEGYLATED URICASE” (Selecta Biosciences, Inc., priority 2019, published 2021).
Where two headings read alike, the source gives them in different places.

Legend:
[1] = test system: Patients with Hyperuricemia and Gout; details: for Subjects who required treatment for at least one gout flare: first 8 weeks, with gout flare prophylaxis
[2] = test system: patients with gout with an inadequate response to allopurinol; details: for Patients with gout flares requiring treatment in a month: colchicine prophylaxis

Compound | Flares per patient month (flare frequency) ([1]; 80 mg/day) | Subjects who required treatment for at least one gout flare ([1]; 80 mg/day) | Flares per patient month (flare frequency) ([1]; 80 mg/day, listed as febuxostat) | Flares per patient month (flare frequency) ([1]; 120 mg/day) | Subjects who required treatment for at least one gout flare ([1]; 120 mg/day) | Flares per patient month (flare frequency) ([1]; 120 mg/day, listed as febuxostat) | Patients with gout flares requiring treatment in a month ([2]; 200 mg daily) | Flares per patient month (flare frequency) ([2]; 200 mg/day) | Time of efficacy (area under curve of mean sUA levels over time) ([2]; 200 mg/day) | Patients with gout flares requiring treatment in a month ([2]; 400 mg daily) | Flares per patient month (flare frequency) ([2]; 400 mg/day) | Time of efficacy (area under curve of mean sUA levels over time) ([2]; 400 mg/day) | Patients with gout flares requiring treatment in a month ([2]; 600 mg daily) | Flares per patient month (flare frequency) ([2]; 600 mg/day) | Time of efficacy (area under curve of mean sUA levels over time) ([2]; 600 mg/day)
Cc1nc(-c2ccc(OCC(C)C)c(C#N)c2)sc1C(=O)O [Febuxostat, febuxostat] | 0.22 flares per patient month | 55 out of 255 | at least 0.22 flares per patient month | 0.36 flares per patient month | 90 out of 250 | ≥ 0.36 flares per patient month | – | – | – | – | – | – | – | – | –
O=C(O)CSc1nnc(Br)n1-c1ccc(C2CC2)c2ccccc12 [Lesinurad, lesinurad] | – | – | – | – | – | – | 10 out of 46 | 0.22 flares per patient month | 158.5 | 13 out of 42 | 0.31 flares per patient month | 165.8 | 15 out of 48 | 0.31 flares per patient month | 167.5
